Laboratory results reported in ChEMBL document CHEMBL5257106, “Design, synthesis, and biological evaluation of novel HDAC inhibitors with a 3-(benzazol-2-yl)quinoxaline framework” (Bioorg Med Chem Lett, 2023).
pIC50: −log10 of the molar value.

What was measured:
A2780 = experiment: Antiproliferative activity against human A2780 cells assessed as inhibition of cell growth by MTT assay; type: functional, cell-based
HCT-116 [1] = experiment: Antiproliferative activity against human HCT-116 cells assessed as inhibition of cell growth by MTT assay; type: functional, cell-based
PANC-1 = experiment: Antiproliferative activity against human PANC-1 cells assessed as inhibition of cell growth by MTT assay; type: functional, cell-based
MCF7 = experiment: Antiproliferative activity against human MCF7 cells assessed as inhibition of cell growth by MTT assay; type: functional, cell-based
[2] = Cytotoxicity against HUVEC cells assessed as inhibition of cell growth by MTT assay; conditions: human
HCT-116 [3] = experiment: Induction of cell cycle arrest in human HCT-116 assessed as decrease in G0/G1 phase cells at 1 uM incubated for 48 hrs by flow cytometric analysis (reference value: 63.51%); type: functional; design: scale not given: the % may be the effect or the level left
HCT-116 [4] = experiment: Induction of cell cycle arrest in human HCT-116 assessed as S phase cells at 1 uM incubated for 48 hrs by flow cytometric analysis (reference value: 12.79%); type: functional
HCT-116 [5] = experiment: Induction of apoptosis in human HCT-116 cells assessed as viable cells at 1 uM incubated for 24 hrs by Annexin V-FITC/PI staining based flow cytometry analysis (reference value: 93.2%); type: functional
HCT-116 [6] = experiment: Induction of apoptosis in human HCT-116 cells assessed as necrotic cells at 1 uM incubated for 24 hrs by Annexin V-FITC/PI staining based flow cytometry analysis (reference value: 0.00%); type: functional
HCT-116 [7] = experiment: Induction of apoptosis in human HCT-116 cells assessed as total apoptotic cells at 1 uM incubated for 24 hrs by Annexin V-FITC/PI staining based flow cytometry analysis (reference value: 6.823%); type: functional
HCT-116 [8] = experiment: Induction of cell cycle arrest in human HCT-116 assessed as increase in G2/M phase cells at 1 uM incubated for 48 hrs by flow cytometric analysis (reference value: 23.70%); type: functional
HCT-116 [9] = experiment: Induction of apoptosis in human HCT-116 cells assessed as late apoptotic cells at 1 uM incubated for 24 hrs by Annexin V-FITC/PI staining based flow cytometry analysis (reference value: 0.323%); type: functional
HCT-116 [10] = experiment: Induction of apoptosis in human HCT-116 cells assessed as early apoptotic cells at 1 uM incubated for 24 hrs by Annexin V-FITC/PI staining based flow cytometry analysis (reference value: 6.50%); type: functional
K562 = experiment: Antiproliferative activity against human K562 cells assessed as inhibition of cell growth by MTT assay; type: functional, cell-based
RS4-11 = experiment: Antiproliferative activity against human RS4-11 cells assessed as inhibition of cell growth by MTT assay; type: functional, cell-based
HL-60 = experiment: Antiproliferative activity against human HL-60 cells assessed as inhibition of cell growth by MTT assay; type: functional, cell-based

SMILES | pIC50 (A2780) | pIC50 (HCT-116 [1]) | pIC50 (PANC-1) | pIC50 (MCF7) | pIC50 (K562) | pIC50 (RS4-11) | pIC50 (HL-60) | pIC50 [2] | Activity (HCT-116 [3]) | Activity (HCT-116 [4]) | Activity (HCT-116 [5]) | Activity (HCT-116 [6]) | Activity (HCT-116 [7]) | Activity (HCT-116 [8]) | Activity (HCT-116 [9]) | Activity (HCT-116 [10])
Nc1ccccc1NC(=O)CCCNc1nc2ccccc2nc1-c1nc2ccccc2o1 | 4.62 | 4.76 | 4.67 | 4.48 | – | – | – | 4.56 | – | – | – | – | – | – | – | –
O=C(CCCCCCC(=O)Nc1ccccc1)NO [VORINOSTAT] | – | – | – | – | – | – | – | – | 58.11% | 11.02% | 58.4% | 0.146% | 41.49% | 30.87% | 6.59% | 34.9%
Nc1ccccc1NC(=O)CCCCCNc1nc2ccccc2nc1-c1nc2ccccc2o1 | 4.90 | 5.00 | 4.95 | 5.03 | – | – | – | 4.81 | – | – | – | – | – | – | – | –
Nc1ccccc1NC(=O)CCCCCCNc1nc2ccccc2nc1-c1nc2ccccc2o1 | 4.75 | 5.19 | 4.96 | 5.13 | – | – | – | 4.78 | – | – | – | – | – | – | – | –
Nc1ccccc1NC(=O)CCCCCCCNc1nc2ccccc2nc1-c1nc2ccccc2o1 | 5.15 | 5.04 | 4.98 | 4.90 | – | – | – | 4.67 | – | – | – | – | – | – | – | –

Second part, led by results:

pIC50 (A2780) | pIC50 (HCT-116 [1]) | pIC50 (PANC-1) | pIC50 (MCF7) | pIC50 (K562) | pIC50 (RS4-11) | pIC50 (HL-60) | SMILES | pIC50 [2] | Activity (HCT-116 [3]) | Activity (HCT-116 [4]) | Activity (HCT-116 [5]) | Activity (HCT-116 [6]) | Activity (HCT-116 [7]) | Activity (HCT-116 [8]) | Activity (HCT-116 [9]) | Activity (HCT-116 [10])
5.39 | 5.61 | 5.72 | 5.43 | – | – | – | O=C(CCCCCNc1nc2ccccc2nc1-c1nc2ccccc2o1)NO | 4.79 | – | – | – | – | – | – | – | –
5.49 | 5.52 | 5.54 | 5.82 | 6.05 | 6.05 | 6.05 | O=C(CCCCCCCNc1nc2ccccc2nc1-c1nc2ccccc2o1)NO | 4.76 | – | – | – | – | – | – | – | –
5.20 | 5.34 | 5.43 | 5.30 | – | – | – | O=C(CCCNc1nc2ccccc2nc1-c1nc2ccccc2o1)NO | 4.62 | – | – | – | – | – | – | – | –
